Assay results reported in patent publication US11116760B2 (Gilead Sciences, Inc., priority 2018, dated 2021).

target: α4β7 integrin (Homo sapiens (Human), UniProt P13612+P26010); assay: α4β7 Integrin Cell Capture Assay; assay type: cell-based; conditions: RPMI8866 cells captured on MadCAM-1 extracellular domain-coated plate
Method: α4β7 Integrin Cell Capture Assay
The potency of inhibitors in preventing α4β7 integrin interaction with MadCAM-1 was measured by monitoring the capture of α4β7 integrin expressing cells on a recombinant MadCAM-1 extracellular domain-coated plate. […] The plates were then washed with PBS and blocked with 3% BSA for 2 hours before being washed again.
RPM18866 cells were spun down and re-suspended in assay medium (DMEM+0.5% FBS+0.5 mM MnCl2) at a density of 0.5×10^6 cells/mL. […] The plates were incubated at 37° C. for 1 hour. 50 μL of cells were transferred to the blocked, MadCAM-1-coated plates and incubated for 30 minutes at 37° C. […] The plates were incubated for 90 minutes at room temperature. The plates were then washed 3 times with 70 μL of PBS per well and imaged on a Cellomics ArrayScan instrument. The cells that were bound to the plate were counted and plotted against the compound concentration to determine the EC50 of the test compounds.

α4β7 integrin, sequence (P13612 34-1032): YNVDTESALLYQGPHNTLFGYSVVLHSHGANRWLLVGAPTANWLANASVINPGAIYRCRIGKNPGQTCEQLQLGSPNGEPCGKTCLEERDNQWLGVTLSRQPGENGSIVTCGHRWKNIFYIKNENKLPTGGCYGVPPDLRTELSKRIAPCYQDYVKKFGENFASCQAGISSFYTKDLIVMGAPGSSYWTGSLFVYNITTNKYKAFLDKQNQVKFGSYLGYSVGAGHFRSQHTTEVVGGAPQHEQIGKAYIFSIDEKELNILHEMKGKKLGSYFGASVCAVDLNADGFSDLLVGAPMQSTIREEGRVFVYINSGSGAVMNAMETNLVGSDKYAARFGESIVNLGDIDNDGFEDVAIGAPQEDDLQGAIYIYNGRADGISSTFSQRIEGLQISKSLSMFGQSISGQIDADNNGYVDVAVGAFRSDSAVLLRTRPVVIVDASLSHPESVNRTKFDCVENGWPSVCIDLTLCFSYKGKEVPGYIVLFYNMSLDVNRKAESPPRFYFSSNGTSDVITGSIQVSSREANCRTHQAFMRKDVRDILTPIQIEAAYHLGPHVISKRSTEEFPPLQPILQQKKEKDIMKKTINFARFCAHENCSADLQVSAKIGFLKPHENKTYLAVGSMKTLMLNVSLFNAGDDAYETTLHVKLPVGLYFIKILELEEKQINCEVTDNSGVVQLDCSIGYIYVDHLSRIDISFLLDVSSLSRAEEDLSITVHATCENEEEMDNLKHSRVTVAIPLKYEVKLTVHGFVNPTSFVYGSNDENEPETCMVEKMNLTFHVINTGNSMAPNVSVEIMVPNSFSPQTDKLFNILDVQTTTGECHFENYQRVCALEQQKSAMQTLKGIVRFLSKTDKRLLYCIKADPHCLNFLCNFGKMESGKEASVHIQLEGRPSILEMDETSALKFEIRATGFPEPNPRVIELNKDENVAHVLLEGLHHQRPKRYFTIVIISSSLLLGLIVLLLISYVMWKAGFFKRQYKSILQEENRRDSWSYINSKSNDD
α4β7 integrin, sequence (P26010 20-798): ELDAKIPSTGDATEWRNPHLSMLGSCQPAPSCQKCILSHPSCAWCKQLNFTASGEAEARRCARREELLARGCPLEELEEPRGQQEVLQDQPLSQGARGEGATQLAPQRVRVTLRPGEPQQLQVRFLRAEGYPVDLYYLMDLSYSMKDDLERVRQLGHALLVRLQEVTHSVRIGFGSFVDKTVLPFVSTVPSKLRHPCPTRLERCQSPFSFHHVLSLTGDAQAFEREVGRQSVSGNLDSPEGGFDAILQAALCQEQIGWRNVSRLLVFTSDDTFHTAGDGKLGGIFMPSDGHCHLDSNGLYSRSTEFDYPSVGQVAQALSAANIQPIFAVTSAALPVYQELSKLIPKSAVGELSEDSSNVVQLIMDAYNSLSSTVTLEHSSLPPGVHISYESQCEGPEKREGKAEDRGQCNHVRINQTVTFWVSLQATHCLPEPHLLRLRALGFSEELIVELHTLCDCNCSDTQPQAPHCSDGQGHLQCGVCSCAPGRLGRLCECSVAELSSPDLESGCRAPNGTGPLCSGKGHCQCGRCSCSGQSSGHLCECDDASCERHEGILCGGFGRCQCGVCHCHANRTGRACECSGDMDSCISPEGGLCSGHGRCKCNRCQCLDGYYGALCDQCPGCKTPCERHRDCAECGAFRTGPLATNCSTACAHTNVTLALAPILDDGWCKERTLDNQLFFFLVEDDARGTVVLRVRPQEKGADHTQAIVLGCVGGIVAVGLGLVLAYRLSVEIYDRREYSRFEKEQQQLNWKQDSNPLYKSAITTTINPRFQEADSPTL

Row | Compound | EC50 [nM]
1 | CCc1cc(N2CCOC[C@@H]2C(F)(F)F)cc(F)c1C(=O)N[C@@H](Cc1ccc(-c2c(C(F)(F)F)cc(C)n(C)c2=O)c2ncccc12)C(=O)O [Example 471] | 0.179
2 | CC[C@@H](Nc1cc(C)c(C(=O)N[C@@H](Cc2ccc(-c3c(C)nc(C)n(C)c3=O)c3ncccc23)C(=O)O)c(F)c1)C(F)(F)F [Example 442] | 0.227
3 | Cc1cc(N2CCOC[C@@H]2C(F)(F)F)cc(F)c1C(=O)N[C@@H](Cc1cc(F)c(-c2cc3cnccc3n(C)c2=O)c2ncccc12)C(=O)O [Example 464] | 0.13
4 | Cc1nc2c(s1)c(=O)n(-c1ccc(C[C@H](NC(=O)c3c(C)cc(N4CCOC[C@@H]4C(F)(F)F)cc3F)C(=O)O)c3cccnc13)c(=O)n2C [Example 410] | 0.054
5 | Cc1cc(C(F)(F)F)c(-c2ccc(C[C@H](NC(=O)c3c(F)cc(N4CCOC[C@@H]4C(F)(F)F)cc3C(C)C)C(=O)O)c3cccnc23)c(=O)n1C [Example 470] | 0.181

Continued, values first:

Row | EC50 [nM] | Compound
6 | 0.115 | Cc1cc(N2CCOC[C@@H]2C(F)(F)F)cc(F)c1C(=O)N[C@@H](Cc1ccc(-c2nc(C)c(C)n(C)c2=O)c2ncccc12)C(=O)O [Example 477]
7 | 0.18 | COc1cc2c(=O)n(-c3ccc(C[C@H](NC(=O)c4c(F)cc(N5CCOC[C@@H]5C(F)(F)F)cc4F)C(=O)O)c4cccnc34)c(=O)n(C)c2cn1 [Example 428]

same assay, conditions: Table 1; capture of α4β7 expressing RPM18866 cells on MadCAM-1 extracellular domain-coated plate

Row | Compound | EC50 [nM]
8 | COc1cccc(C)c1-c1ccc(C[C@H](NC(=O)c2c(F)cc(NS(=O)(=O)c3ccc(-c4ccnc(F)c4)cc3)cc2F)C(=O)O)c2cccnc12 [Example 64, (2S)-2-(2,6-difluoro-4-((4-(2-fluoropyridin-4-yl)phenyl)sulfonamido)benzamido)-3-(8-(2-methoxy-6-methylphenyl)quinolin-5-yl)propanoic acid] | 0.8
9 | CC[C@@H](Nc1cc(F)c(C(=O)N[C@@H](Cc2ccc(-c3c(C(F)(F)F)cc(C)n(C)c3=O)c3ncccc23)C(=O)O)c(F)c1)C(F)(F)F (single isomer, unassigned) [Example 147] | 1.9
10 | CC[C@@H](Nc1cc(F)c(C(=O)N[C@@H](Cc2ccc(-c3nccc(OC)c3C(F)(F)F)c3ncccc23)C(=O)O)c(F)c1)C(F)(F)F [Example 92, (S)-2-(2,6-difluoro-4-(((R)-1,1,1-trifluorobutan-2-yl)amino)benzamido)-3-(8-(4-methoxy-3-(trifluoromethyl)pyridin-2-yl)quinolin-5-yl)propanoic acid] | 2
11 | CC[C@H](C)Nc1cc(F)c(C(=O)N[C@@H](Cc2ccc(-c3c(C(F)(F)F)cc(C)n(C)c3=O)c3ncccc23)C(=O)O)c(F)c1 [Example 134, (S)-2-(4-(((S)-sec-butyl)amino)-2,6-difluorobenzamido)-3-(8-(1,6-dimethyl-2-oxo-4-(trifluoromethyl)-1,2-dihydropyridin-3-yl)quinolin-5-yl)propanoic acid] | 4.2
12 | CC[C@@H](Nc1cc(F)c(C(=O)N[C@@H](Cc2ccc(-c3c(C(F)(F)F)cc(C)n(C)c3=O)c3ncccc23)C(=O)O)cc1C)C(F)(F)F [Example 145, (S)-3-(8-(1,6-dimethyl-2-oxo-4-(trifluoromethyl)-1,2-dihydropyridin-3-yl)quinolin-5-yl)-2-(2-fluoro-5-methyl-4-(((R)-1,1,1-trifluorobutan-2-yl)amino)benzamido)propanoic acid] | 3.1
13 | N#Cc1ccc(-c2ccc(C[C@H](NC(=O)c3c(Cl)cccc3Cl)C(=O)O)c3cc(F)cnc23)c(Cl)c1 [Example 30, (S)-3-(8-(2-chloro-4-cyanophenyl)-3-fluoroquinolin-5-yl)-2-(2,6-dichlorobenzamido)propanoic acid] | 16.9
14 | O=C(N[C@@H](Cc1ccc(-c2ccncn2)c2ncccc12)C(=O)O)c1c(F)cc(NS(=O)(=O)c2ccc(-c3ccnc(F)c3)cc2)cc1F [Example 56, (S)-2-(2,6-difluoro-4-((4-(2-fluoropyridin-4-yl)phenyl)sulfonamido)benzamido)-3-(8-(pyrimidin-4-yl)quinolin-5-yl)propanoic acid] | 9.1
15 | N#Cc1ccc(-c2ccc(C[C@H](NC(=O)c3c(F)cc(C(=O)Nc4ccccc4)cc3F)C(=O)O)c3cccnc23)c(Cl)c1 [Example 26, (S)-3-(8-(2-chloro-4-cyanophenyl)quinolin-5-yl)-2-(2,6-difluoro-4-(phenylcarbamoyl)benzamido)propanoic acid] | 32.8
16 | N#Cc1ccc(-c2ccc(C[C@H](NC(=O)c3c(F)cccc3F)C(=O)O)c3cccnc23)c(Cl)c1 [Example 3, (S)-3-(8-(2-chloro-4-cyanophenyl)quinolin-5-yl)-2-(2,6-difluorobenzamido)propanoic acid] | 63.8

Results, then the compound that gave them:

Row | EC50 [nM] | Compound
17 | 6 | N#Cc1ccc(-c2ccc(C[C@H](NC(=O)c3c(F)cc(N4CCOCC4C(F)(F)F)cc3F)C(=O)O)c3cccnc23)c(Cl)c1 (some centres unmarked) [Example 81]
18 | 134 | N#Cc1ccc(-c2ccc(C[C@H](NC(=O)c3c(F)cc(N4CCC4C(F)(F)F)cc3F)C(=O)O)c3cccnc23)c(Cl)c1 (stereo partly drawn) [Example 78, (2S)-3-(8-(2-chloro-4-cyanophenyl)quinolin-5-yl)-2-(2,6-difluoro-4-(2-(trifluoromethyl)azetidin-1-yl)benzamido)propanoic acid]
19 | 9.3 | CC[C@@H](Nc1cc(F)c(C(=O)N[C@@H](Cc2ccc(-c3c(C)n(C)c4ccc(F)cc4c3=O)c3ncccc23)C(=O)O)c(F)c1)C(F)(F)F [Example 127, (S)-2-(2,6-difluoro-4-(((R)-1,1,1-trifluorobutan-2-yl)amino)benzamido)-3-(6-fluoro-1,2-dimethyl-4-oxo-1,4-dihydro-[3,8′-biquinolin]-5′-yl)propanoic acid]
20 | 0.9 | CC[C@@H](Nc1cc(F)c(C(=O)N[C@@H](Cc2ccc(-c3c(C(F)(F)F)c4ccccc4n(C)c3=O)c3ncccc23)C(=O)O)c(F)c1)C(F)(F)F [Example 123, (S)-2-(2,6-difluoro-4-(((R)-1,1,1-trifluorobutan-2-yl)amino)benzamido)-3-(1-methyl-2-oxo-4-(trifluoromethyl)-1,2-dihydro-[3,8′-biquinolin]-5′-yl)propanoic acid]
21 | 0.5 | Cn1c(=O)c(-c2ccc(C[C@H](NC(=O)c3c(F)cc(N4CCOC[C@@H]4C(F)(F)F)cc3F)C(=O)O)c3cccnc23)cc2ccccc21 [Example 104, (S)-2-(2,6-difluoro-4-((R)-3-(trifluoromethyl)morpholino)benzamido)-3-(1-methyl-2-oxo-1,2-dihydro-[3,8′-biquinolin]-5′-yl)propanoic acid]

same assay, conditions: Table 2; capture of α4β7 expressing RPM18866 cells on MadCAM-1 extracellular domain-coated plate

Row | Compound | EC50 [nM]
22 | Cc1cc(C(F)(F)F)c(-c2ccc(C[C@H](NC(=O)c3c(F)cc(N4CC5CCC4CO5)cc3F)C(=O)O)c3cccnc23)c(=O)n1C (some centres unmarked) [Example 257] | 3.5
23 | N#Cc1cc(Cl)c(-c2ccc(C[C@H](NC(=O)c3c(F)cc(CS(=O)(=O)c4ccccc4)cc3F)C(=O)O)c3cccnc23)c(Cl)c1 [Example 293] | 6.9
24 | COc1ccc(C)nc1-c1ccc(C[C@H](NC(=O)c2c(F)cc(N3CCOC[C@H]3C(F)(F)F)cc2F)C(=O)O)c2cccnc12 [Example 291] | 6.9
25 | CCOCc1cc(OC)c(-c2ccc(C[C@H](NC(=O)c3c(F)cc(CS(=O)(=O)c4ccccc4)cc3F)C(=O)O)c3cccnc23)c(OC)c1 [Example 224] | 2.2
26 | Cc1ccnc(-c2ccc(C[C@H](NC(=O)c3c(F)cc(N4CCOC[C@@H]4C(F)(F)F)cc3F)C(=O)O)c3cccnc23)n1 [Example 263] | 4
27 | Cc1c(N)cc(-c2ccc(C[C@H](NC(=O)c3c(F)cc(N4CCOC[C@@H]4C(F)(F)F)cc3F)C(=O)O)c3cccnc23)c(=O)n1C [Example 273] | 4.7
28 | COc1cc(C)n(C)c(=O)c1-c1ccc(C[C@H](NC(=O)c2c(F)cc(N3CCCC[C@@H]3C(F)(F)F)cc2F)C(=O)O)c2cccnc12 [Example 190] | 1.2
29 | Cc1ccc(C(F)(F)F)c(-c2ccc(C[C@H](NC(=O)c3c(F)cc(N4CCOC[C@@H]4C(F)(F)F)cc3F)C(=O)O)c3cccnc23)n1 [Example 270] | 4.4
30 | N#Cc1cc(Cl)c(-c2ccc(C[C@H](NC(=O)c3c(Cl)cccc3Cl)C(=O)O)c3cc(F)cnc23)c(Cl)c1 [Example 304] | 9.6

Results, then the compound that gave them:

Row | EC50 [nM] | Compound
31 | 63.1 | O=C(N[C@@H](Cc1ccc(-c2cc3ccccc3oc2=O)c2ncccc12)C(=O)O)c1c(Cl)cccc1Cl [Example 196]
32 | 1.3 | Cc1cc(C(F)(F)F)c(-c2ccc(C[C@H](NC(=O)c3c(F)cc(N4C[C@@H](C)OC[C@@H]4C)cc3F)C(=O)O)c3cccnc23)c(=O)n1C [Example 191]
33 | 2.3 | CC[C@@H](Nc1cc(F)c(C(=O)N[C@@H](Cc2ccc(-c3c(C)n(C)c(=O)n(C)c3=O)c3ncccc23)C(=O)O)c(F)c1)C(F)(F)F (atropisomer, axis not shown) [Example 234]
34 | 1.4 | Cc1cc(C(F)(F)F)c(-c2ccc(C[C@H](NC(=O)c3c(F)cc(N4C[C@H](C)OC[C@@H]4C(F)(F)F)cc3F)C(=O)O)c3cccnc23)c(=O)n1C [Example 198]
35 | 5.2 | Cc1cnc(-c2ccc(C[C@H](NC(=O)c3c(F)cc(N4CCOC[C@@H]4C(F)(F)F)cc3F)C(=O)O)c3cccnc23)c(N(C)C)c1 [Example 277]
36 | 2.8 | Cc1c(N(C)C)cn(C)c(=O)c1-c1ccc(C[C@H](NC(=O)c2c(F)cc(N3CCOC[C@@H]3C(F)(F)F)cc2F)C(=O)O)c2cccnc12 [Example 242]
37 | 82.4 | O=C(N[C@H](C(=O)O)[C@@H](O)c1ccc(-c2c(Cl)cc(F)cc2Cl)c2ncccc12)c1c(F)cccc1F [Example 279]
38 | 5.7 | C[C@@H](Nc1cc(F)c(C(=O)N[C@@H](Cc2ccc(-c3ncccc3C(F)(F)F)c3ncccc23)C(=O)O)c(F)c1)C(F)(F)F [Example 283]
